Reference: the supplement of paper PMC10307832

What was measured:
Assay in all cases: relative viability (nuclei count vs DMSO), 5 days (fraction); higher = more cells survive
R406 + Luminespib = compound: COc1cc(Nc2ncc(F)c(Nc3ccc4c(n3)NC(=O)C(C)(C)O4)n2)cc(OC)c1OC [R406] + CCNC(=O)c1noc(-c2cc(C(C)C)c(O)cc2O)c1-c1ccc(CN2CCOCC2)cc1 [Luminespib] (partner 0.01 µM)
Procedure, shortened: (§1)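 One day after seeding in 1536-well plates, lung cancer cell lines were dosed by pin tool. Dosing was either single-drug or a fixed anchor-drug dose plus five library-drug doses (not always all listed) in √10 steps. After 5 days, nuclei were stained in one fix-and-stain step and counted on 4× images, and relative viability is the nuclei count of treated wells over that of vehicle wells, given as the median of duplicate plates.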

Daporinad + Olaparib = compound: O=C(/C=C/c1cccnc1)NCCCCC1CCN(C(=O)c2ccccc2)CC1 [Daporinad] + O=C(c1cc(Cc2n[nH]c(=O)c3ccccc23)ccc1F)N1CCN(C(=O)C2CC2)CC1 [Olaparib] (partner 8 µM)
Procedure, shortened: as §1

Daporinad + Pictilisib = compound: O=C(/C=C/c1cccnc1)NCCCCC1CCN(C(=O)c2ccccc2)CC1 [Daporinad] + CS(=O)(=O)N1CCN(Cc2cc3nc(-c4cccc5[nH]ncc45)nc(N4CCOCC4)c3s2)CC1 [Pictilisib] (partner 1 µM)
Procedure, shortened: as §1

R406 + Trametinib = compound: COc1cc(Nc2ncc(F)c(Nc3ccc4c(n3)NC(=O)C(C)(C)O4)n2)cc(OC)c1OC [R406] + CC(=O)Nc1cccc(-n2c(=O)n(C3CC3)c(=O)c3c(Nc4ccc(I)cc4F)n(C)c(=O)c(C)c32)c1 [Trametinib] (partner 0.02 µM)
Procedure, shortened: as §1

Row | Cell Line | relative viability (R406 + Luminespib; first compound 0.08 µM) | relative viability (R406 + Luminespib; first compound 0.253 µM) | relative viability (R406 + Luminespib; first compound 0.8 µM) | relative viability (R406 + Luminespib; first compound 2.53 µM) | relative viability (R406 + Luminespib; first compound 8 µM) | relative viability (Daporinad + Olaparib; first compound 0.0005 µM) | relative viability (Daporinad + Olaparib; first compound 0.001581 µM) | relative viability (Daporinad + Olaparib; first compound 0.005 µM) | relative viability (Daporinad + Olaparib; first compound 0.01581 µM) | relative viability (Daporinad + Pictilisib; first compound 0.0005 µM) | relative viability (Daporinad + Pictilisib; first compound 0.001581 µM) | relative viability (Daporinad + Pictilisib; first compound 0.005 µM) | relative viability (Daporinad + Pictilisib; first compound 0.01581 µM) | relative viability (R406 + Trametinib; first compound 0.08 µM) | relative viability (R406 + Trametinib; first compound 0.253 µM) | relative viability (R406 + Trametinib; first compound 0.8 µM) | relative viability (R406 + Trametinib; first compound 2.53 µM) | relative viability (R406 + Trametinib; first compound 8 µM)
1 | NCI-H460 | 0.0325 | 0.0281 | 0.0243 | 0.023 | 0.0248 | 0.399 | 0.375 | 0.184 | 0.143 | 0.332 | 0.368 | 0.423 | 0.535 | 0.0847 | 0.4 | 0.258 | 0.0114 | 0.0382
2 | NCI-H520 | 0.225 | 0.25 | 0.293 | 0.271 | 0.226 | 0.261 | 0.202 | 0.221 | 0.153 | 0.346 | 0.29 | 0.29 | 0.187 | 0.665 | 0.792 | 0.935 | 0.258 | 0.124
3 | NCI-H596 | 0.817 | 1.2 | 1.27 | 0.55 | 0.132 | 0.647 | 0.562 | 0.542 | 0.441 | 0.402 | 0.371 | 0.421 | 0.448 | 0.814 | 0.909 | 0.775 | 0.72 | 0.196
4 | NCI-H647 | 0.235 | 0.191 | 0.348 | 0.128 | 0.123 | 0.624 | 0.547 | 0.224 | 0.156 | 0.403 | 0.556 | 0.489 | 0.53 | 0.534 | 0.359 | 0.6 | 0.239 | 0.0884
5 | NCI-H650 | 0.81 | 0.878 | 0.879 | 0.294 | 0.487 | 0.358 | 0.462 | 0.346 | 0.285 | 0.937 | 0.962 | 1.02 | 1.05 | 0.949 | 1.06 | 1 | 0.818 | 0.819
6 | NCI-H661 | 0.887 | 0.956 | 0.827 | 0.977 | 0.862 | 0.687 | 0.616 | 0.665 | 0.402 | 0.412 | 0.376 | 0.487 | 0.357 | 0.561 | 0.604 | 0.57 | 0.489 | 0.366
7 | NCI-H727 | 0.351 | 0.521 | 0.345 |  | 0.323 | 0.571 | 0.682 | 0.623 | 0.539 | 0.359 | 0.354 | 0.414 | 0.284 | 0.416 | 0.344 | 0.453 | 0.406 | 0.372
8 | NCI-H838 | 0.277 | 0.319 | 0.176 | 0.234 | 0.236 | 0.699 | 0.631 | 0.482 | 0.341 | 0.507 | 0.559 | 0.592 | 0.53 | 0.526 | 0.598 | 0.684 | 0.256 | 0.115
9 | NCI-H1355 | 0.713 | 0.804 | 0.664 | 0.497 | 0.39 | 0.693 | 0.737 | 0.6 | 0.479 | 0.417 | 0.549 | 0.628 | 0.576 | 0.456 | 0.45 | 0.406 | 0.384 | 0.327
10 | NCI-H1395 | 0.502 | 0.725 | 0.71 | 0.466 | 0.355 | 0.436 | 0.471 | 0.432 | 0.425 | 0.615 | 0.697 | 0.574 | 0.674 | 0.979 | 1.02 | 0.998 | 0.687 | 0.568
11 | NCI-H1437 | 1.14 | 1.13 | 1.15 | 1.23 | 0.966 | 0.619 | 0.624 | 0.633 | 0.548 | 0.418 | 0.527 | 0.433 | 0.553 | 0.547 | 0.657 | 0.637 | 0.487 | 0.295
12 | NCI-H1650 | 0.185 | 0.196 | 0.194 | 0.184 | 0.182 | 0.724 | 0.601 | 0.431 | 0.443 | 0.503 | 0.727 | 0.715 | 0.733 | 0.604 | 0.585 | 0.633 | 0.054 | 0.124
13 | NCI-H1651 | 1.07 | 1.2 | 1.02 | 0.647 | 0.793 | 0.159 | 0.15 | 0.131 | 0.138 | 0.642 | 0.683 | 0.629 | 0.601 | 0.75 | 0.821 | 0.843 | 0.852 | 0.831
14 | NCI-H1666 | 1.02 | 1.16 | 1.03 | 1.05 | 0.64 | 0.754 | 0.644 | 0.669 | 0.679 | 0.508 | 0.482 | 0.456 | 0.494 | 0.901 | 0.866 | 0.943 | 0.955 | 0.679
